Measurements: ChEMBL document CHEMBL4371033, “Highly Potent and Selective Plasmin Inhibitors Based on the Sunflower Trypsin Inhibitor-1 Scaffold Attenuate Fibrinolysis in Plasma” (J Med Chem, 2019)
Residues, ends and D or L forms follow the SMILES beside them.

Legend:
[1] = molecular target: T1, Suppressor of tumorigenicity 14 protein (Homo sapiens, UniProt Q9Y5Y6); test: Inhibition of recombinant human matriptase catalytic domain pre-incubated for 60 mins before Boc QAR-AMC substrate addition
T1 sequence (Q9Y5Y6 whole entry): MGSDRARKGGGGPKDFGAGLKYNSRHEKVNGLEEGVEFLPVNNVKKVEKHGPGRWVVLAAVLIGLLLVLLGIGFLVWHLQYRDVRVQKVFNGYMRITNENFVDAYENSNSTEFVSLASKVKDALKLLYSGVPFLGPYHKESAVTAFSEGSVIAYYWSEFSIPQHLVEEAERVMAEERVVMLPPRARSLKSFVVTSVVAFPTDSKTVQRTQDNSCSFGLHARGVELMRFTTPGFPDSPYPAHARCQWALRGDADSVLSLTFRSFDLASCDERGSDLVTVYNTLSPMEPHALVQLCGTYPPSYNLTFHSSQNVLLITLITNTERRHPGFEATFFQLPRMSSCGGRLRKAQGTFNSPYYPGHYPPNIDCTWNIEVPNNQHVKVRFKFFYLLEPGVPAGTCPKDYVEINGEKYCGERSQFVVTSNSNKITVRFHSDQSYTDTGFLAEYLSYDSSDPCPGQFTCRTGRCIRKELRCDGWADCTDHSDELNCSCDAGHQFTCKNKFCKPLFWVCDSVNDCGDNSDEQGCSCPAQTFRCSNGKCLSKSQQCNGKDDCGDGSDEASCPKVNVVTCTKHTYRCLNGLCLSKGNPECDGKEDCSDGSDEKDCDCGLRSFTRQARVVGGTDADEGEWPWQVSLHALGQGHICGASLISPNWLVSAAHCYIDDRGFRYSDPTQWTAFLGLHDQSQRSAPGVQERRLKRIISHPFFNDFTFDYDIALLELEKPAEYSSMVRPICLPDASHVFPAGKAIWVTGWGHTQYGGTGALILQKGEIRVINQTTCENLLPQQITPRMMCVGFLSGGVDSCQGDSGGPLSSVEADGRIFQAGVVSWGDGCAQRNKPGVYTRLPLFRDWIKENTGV

Coagulation factor XII [2] = molecular target: T2, Coagulation factor XII (Homo sapiens, UniProt P00748); test: Inhibition of human beta-factor 12a using Ac-QRFR-pNA as substrate after 30 mins
T2 sequence (P00748 whole entry): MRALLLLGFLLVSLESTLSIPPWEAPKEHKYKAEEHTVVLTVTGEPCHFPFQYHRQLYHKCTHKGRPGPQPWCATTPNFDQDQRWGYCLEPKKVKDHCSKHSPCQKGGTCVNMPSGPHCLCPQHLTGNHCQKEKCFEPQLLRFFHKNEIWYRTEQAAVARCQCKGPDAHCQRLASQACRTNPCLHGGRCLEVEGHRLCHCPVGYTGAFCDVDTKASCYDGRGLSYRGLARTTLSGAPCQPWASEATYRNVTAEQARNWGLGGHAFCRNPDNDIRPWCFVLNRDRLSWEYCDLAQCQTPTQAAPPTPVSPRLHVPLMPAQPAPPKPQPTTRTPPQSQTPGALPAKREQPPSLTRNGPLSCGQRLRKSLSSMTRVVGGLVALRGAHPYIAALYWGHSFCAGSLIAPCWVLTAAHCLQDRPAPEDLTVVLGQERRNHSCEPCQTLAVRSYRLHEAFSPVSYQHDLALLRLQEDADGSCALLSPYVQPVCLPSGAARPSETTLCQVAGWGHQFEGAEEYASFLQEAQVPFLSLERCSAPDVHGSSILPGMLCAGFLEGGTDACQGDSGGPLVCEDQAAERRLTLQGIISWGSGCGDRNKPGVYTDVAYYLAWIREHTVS

[3] = Inhibition of bovine trypsin pre-incubated for 60 mins before tos-GPR-AMC substrate addition; parameters: species or system Bos taurus
Trypsin (Sus scrofa) [4] = molecular target: Trypsin (Sus scrofa) (UniProt P00761); test: Inhibition of porcine trypsin assessed as dissociation rate constant using peptide-pNA as substrate
Trypsin (Sus scrofa) [5] = molecular target: Trypsin (Sus scrofa) (UniProt P00761); test: Inhibition of porcine trypsin assessed as association rate constant using peptide-pNA as substrate
Coagulation factor XI [6] = molecular target: T3, Coagulation factor XI (Homo sapiens, UniProt P03951); test: Inhibition of activated beta-factor 11 (unknown origin) using Bz-FVRpNA as substrate after 30 mins
Prothrombin [7] = molecular target: T4, Prothrombin (Homo sapiens, UniProt P00734); test: Inhibition of human thrombin using Ac-ATPR-pNA as substrate after 30 mins relative to untreated control
[8] = molecular target: Urokinase-type plasminogen activator (Homo sapiens, UniProt P00749); test: Inhibition of uPA (unknown origin) using Z-Pyr-Gly-Arg-MCA as substrate after 30 mins relative to untreated control
Plasma kallikrein [9] = molecular target: T5, Plasma kallikrein (Homo sapiens, UniProt P03952); test: Inhibition of plasma KLK (unknown origin) using Ac-NLTR-pNA as substrate after 30 mins
[10] = molecular target: Tissue-type plasminogen activator (Homo sapiens, UniProt P00750); test: Inhibition of tPA (unknown origin) using Z-Pyr-Gly-Arg-MCA as substrate after 30 mins relative to untreated control
[11] = molecular target: T1, Suppressor of tumorigenicity 14 protein; test: Inhibition of matriptase (unknown origin) using Boc-QAR-MCA as substrate after 30 mins
Coagulation factor IX = Coagulation factor IX (Homo sapiens, UniProt P00740); test: Inhibition of activated beta-factor 9 (unknown origin) using Boc-QGR-MCA as substrate after 30 mins relative to untreated control
Prothrombin [12] = molecular target: T4, Prothrombin; test: Inhibition of human thrombin using Ac-ATPR-pNA as substrate after 30 mins
Coagulation factor XII [13] = molecular target: T2, Coagulation factor XII; test: Inhibition of activated beta-factor 12 (unknown origin) using Ac-QRFR-pNA as substrate after 30 mins relative to untreated control
Serine protease 1 = molecular target: T6, Serine protease 1 (Bos taurus, UniProt P00760); test: Inhibition of bovine cationic trypsin using Bz-FVR-pNA as substrate after 30 mins
T6 sequence (P00760 whole entry): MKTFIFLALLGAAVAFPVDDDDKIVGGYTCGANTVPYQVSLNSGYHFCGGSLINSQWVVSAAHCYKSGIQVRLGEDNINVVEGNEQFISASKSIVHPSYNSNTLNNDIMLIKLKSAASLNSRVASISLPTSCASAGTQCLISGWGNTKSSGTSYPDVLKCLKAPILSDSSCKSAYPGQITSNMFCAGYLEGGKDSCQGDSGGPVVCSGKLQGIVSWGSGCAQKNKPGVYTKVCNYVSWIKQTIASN

Coagulation factor X = Coagulation factor X (Homo sapiens, UniProt P00742); test: Inhibition of activated factor 10 (unknown origin) using Ac-QRSR-pNA as substrate after 30 mins relative to untreated control
Plasminogen = Plasminogen (Homo sapiens, UniProt P00747); test: Inhibition of human plasmin using Ac-RM(O2)YR-pNA as substrate after 30 mins
Cathepsin G = molecular target: T7, Cathepsin G (Homo sapiens, UniProt P08311); test: Inhibition of human cathepsin G using Suc-AAPF-MCA as substrate after 30 mins
T7 sequence (P08311 whole entry): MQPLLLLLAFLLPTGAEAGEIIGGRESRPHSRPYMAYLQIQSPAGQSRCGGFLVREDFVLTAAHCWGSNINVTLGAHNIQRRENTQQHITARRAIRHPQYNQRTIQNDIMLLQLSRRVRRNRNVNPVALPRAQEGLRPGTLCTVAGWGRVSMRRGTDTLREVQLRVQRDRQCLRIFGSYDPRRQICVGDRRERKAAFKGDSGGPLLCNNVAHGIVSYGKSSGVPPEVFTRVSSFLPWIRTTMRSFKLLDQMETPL

Plasma kallikrein [14] = molecular target: T5, Plasma kallikrein; test: Inhibition of plasma KLK (unknown origin) using Ac-NLTR-pNA as substrate after 30 mins relative to untreated control
[15] = molecular target: T1, Suppressor of tumorigenicity 14 protein; test: Inhibition of matriptase (unknown origin) using Boc-QAR-MCA as substrate after 30 mins relative to untreated control
Coagulation factor XI [16] = molecular target: T3, Coagulation factor XI; test: Inhibition of activated beta-factor 11 (unknown origin) using Bz-FVRpNA as substrate after 30 mins relative to untreated control

Coagulation factor IX, sequence (P00740 47-191 limits assumed): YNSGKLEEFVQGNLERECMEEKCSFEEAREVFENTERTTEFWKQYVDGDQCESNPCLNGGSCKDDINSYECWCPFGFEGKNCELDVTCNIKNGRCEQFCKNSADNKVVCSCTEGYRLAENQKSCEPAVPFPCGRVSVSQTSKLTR
Coagulation factor IX, sequence (P00740 227-461 limits assumed): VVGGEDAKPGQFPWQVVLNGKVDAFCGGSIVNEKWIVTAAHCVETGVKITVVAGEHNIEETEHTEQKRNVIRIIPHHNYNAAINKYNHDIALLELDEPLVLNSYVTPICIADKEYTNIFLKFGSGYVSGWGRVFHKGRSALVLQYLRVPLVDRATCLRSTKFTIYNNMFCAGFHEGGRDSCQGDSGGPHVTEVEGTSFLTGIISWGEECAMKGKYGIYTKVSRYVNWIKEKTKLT
Coagulation factor X, sequence (P00742 41-179 limits assumed): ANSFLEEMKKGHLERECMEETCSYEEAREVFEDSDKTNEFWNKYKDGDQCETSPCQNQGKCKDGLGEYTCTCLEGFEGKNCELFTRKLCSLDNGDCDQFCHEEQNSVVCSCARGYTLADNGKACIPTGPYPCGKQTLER
Coagulation factor X, sequence (P00742 235-488 limits assumed): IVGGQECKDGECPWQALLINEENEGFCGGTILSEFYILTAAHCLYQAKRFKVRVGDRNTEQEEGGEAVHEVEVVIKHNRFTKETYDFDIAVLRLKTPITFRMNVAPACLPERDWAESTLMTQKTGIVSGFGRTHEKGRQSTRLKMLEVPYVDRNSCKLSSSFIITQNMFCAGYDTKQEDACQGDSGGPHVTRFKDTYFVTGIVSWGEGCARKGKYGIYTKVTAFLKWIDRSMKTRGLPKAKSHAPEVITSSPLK
Tissue-type plasminogen activator, sequence (P00750 whole entry): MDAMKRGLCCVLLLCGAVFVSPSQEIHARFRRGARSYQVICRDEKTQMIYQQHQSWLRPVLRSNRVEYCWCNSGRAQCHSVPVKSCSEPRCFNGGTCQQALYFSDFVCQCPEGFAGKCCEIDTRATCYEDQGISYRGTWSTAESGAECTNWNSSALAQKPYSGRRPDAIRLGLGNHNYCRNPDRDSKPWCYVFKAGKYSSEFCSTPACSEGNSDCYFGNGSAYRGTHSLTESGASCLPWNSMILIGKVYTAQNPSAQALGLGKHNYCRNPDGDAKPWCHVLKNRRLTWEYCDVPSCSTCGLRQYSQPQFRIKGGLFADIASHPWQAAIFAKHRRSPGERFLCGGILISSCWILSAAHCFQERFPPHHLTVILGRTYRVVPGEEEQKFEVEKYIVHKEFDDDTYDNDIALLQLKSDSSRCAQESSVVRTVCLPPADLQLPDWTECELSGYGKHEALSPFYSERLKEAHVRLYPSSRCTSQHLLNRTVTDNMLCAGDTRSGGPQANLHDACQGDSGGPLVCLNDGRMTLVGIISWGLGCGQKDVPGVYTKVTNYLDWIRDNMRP
Plasminogen, sequence (P00747 97-580 limits assumed): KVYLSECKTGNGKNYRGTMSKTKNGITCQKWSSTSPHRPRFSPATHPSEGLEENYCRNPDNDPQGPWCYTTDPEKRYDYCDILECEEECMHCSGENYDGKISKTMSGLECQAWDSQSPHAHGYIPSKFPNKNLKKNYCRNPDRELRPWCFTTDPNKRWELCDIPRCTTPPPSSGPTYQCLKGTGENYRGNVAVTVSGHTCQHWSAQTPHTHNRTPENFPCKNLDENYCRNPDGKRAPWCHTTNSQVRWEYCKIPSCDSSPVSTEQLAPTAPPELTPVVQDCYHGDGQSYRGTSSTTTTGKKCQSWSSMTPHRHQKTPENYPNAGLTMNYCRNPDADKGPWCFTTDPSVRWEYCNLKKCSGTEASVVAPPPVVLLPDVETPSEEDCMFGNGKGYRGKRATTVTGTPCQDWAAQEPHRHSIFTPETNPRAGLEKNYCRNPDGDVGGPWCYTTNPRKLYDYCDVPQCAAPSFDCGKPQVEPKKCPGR
Plasminogen, sequence (P00747 581-810 limits assumed): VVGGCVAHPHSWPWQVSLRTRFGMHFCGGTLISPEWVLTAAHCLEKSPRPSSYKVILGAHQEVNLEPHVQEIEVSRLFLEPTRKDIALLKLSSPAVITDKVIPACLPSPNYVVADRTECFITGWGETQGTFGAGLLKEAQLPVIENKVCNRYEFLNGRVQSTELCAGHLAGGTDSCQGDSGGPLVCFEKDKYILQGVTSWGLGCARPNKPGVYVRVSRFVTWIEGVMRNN
Trypsin (Sus scrofa), sequence (P00761 whole entry): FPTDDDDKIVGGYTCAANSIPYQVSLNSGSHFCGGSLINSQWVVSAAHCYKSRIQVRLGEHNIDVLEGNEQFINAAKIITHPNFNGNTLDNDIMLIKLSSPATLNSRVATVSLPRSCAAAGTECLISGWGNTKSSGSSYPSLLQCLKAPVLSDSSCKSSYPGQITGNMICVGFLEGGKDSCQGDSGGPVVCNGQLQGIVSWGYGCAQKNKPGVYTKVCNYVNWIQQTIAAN
T3 sequence (P03951 19-387 limits assumed): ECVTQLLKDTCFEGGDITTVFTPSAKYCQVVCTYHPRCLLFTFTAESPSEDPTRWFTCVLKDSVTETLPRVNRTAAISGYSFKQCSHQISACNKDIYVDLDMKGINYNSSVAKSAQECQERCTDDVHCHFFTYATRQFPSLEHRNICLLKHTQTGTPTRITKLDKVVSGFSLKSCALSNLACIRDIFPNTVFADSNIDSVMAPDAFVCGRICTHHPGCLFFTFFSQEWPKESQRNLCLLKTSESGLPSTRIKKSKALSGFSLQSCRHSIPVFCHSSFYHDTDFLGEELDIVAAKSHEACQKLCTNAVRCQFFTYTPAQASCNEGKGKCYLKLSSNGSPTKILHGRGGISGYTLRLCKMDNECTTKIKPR
T3 sequence (P03951 388-625 limits assumed): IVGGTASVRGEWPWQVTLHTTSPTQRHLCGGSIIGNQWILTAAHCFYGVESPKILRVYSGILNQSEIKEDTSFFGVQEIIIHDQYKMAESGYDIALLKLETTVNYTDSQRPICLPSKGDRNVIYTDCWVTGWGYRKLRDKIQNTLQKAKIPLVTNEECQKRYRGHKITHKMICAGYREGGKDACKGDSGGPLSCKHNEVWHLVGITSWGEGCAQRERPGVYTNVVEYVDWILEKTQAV
T5 sequence (P03952 20-390 limits assumed): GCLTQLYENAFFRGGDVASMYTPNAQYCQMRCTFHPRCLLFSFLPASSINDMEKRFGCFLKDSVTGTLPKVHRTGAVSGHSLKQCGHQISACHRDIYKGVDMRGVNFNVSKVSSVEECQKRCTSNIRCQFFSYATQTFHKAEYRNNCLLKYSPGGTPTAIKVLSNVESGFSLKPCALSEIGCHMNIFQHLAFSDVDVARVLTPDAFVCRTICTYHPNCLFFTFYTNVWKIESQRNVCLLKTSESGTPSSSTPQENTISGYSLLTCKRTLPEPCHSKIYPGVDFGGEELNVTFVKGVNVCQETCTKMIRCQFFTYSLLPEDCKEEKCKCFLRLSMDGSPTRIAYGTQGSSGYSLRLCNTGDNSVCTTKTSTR
T5 sequence (P03952 391-638 limits assumed): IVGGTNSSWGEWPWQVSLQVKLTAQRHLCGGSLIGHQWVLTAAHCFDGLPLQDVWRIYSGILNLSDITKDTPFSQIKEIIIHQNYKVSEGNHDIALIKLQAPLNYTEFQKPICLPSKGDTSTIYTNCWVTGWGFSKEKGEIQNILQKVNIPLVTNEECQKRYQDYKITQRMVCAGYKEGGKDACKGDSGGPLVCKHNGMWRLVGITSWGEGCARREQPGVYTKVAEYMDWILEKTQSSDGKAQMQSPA

Ki (Prothrombin [7]) [µM]	Ki [8] [µM]	Ki [10] [µM]	Ki (Coagulation factor IX) [µM]	Ki (Coagulation factor XII [13]) [µM]	Ki (Serine protease 1) [µM]	Ki (Coagulation factor X) [µM]	Ki (Plasminogen) [nM]	Ki (Cathepsin G) [µM]	SMILES	further results
–	–	–	–	–	–	–	–	–	CC[C@H](C)[C@@H]1NC(=O)[C@@H]2CCCN2C(=O)[C@@H]2CCCN2C(=O)[C@H]([C@@H](C)CC)NC(=O)[C@H](CO)NC(=O)[C@H](CCCCN)NC(=O)[C@H]([C@@H](C)O)NC(=O)[C@@H]2CSSC[C@H](NC1=O)C(=O)N[C@@H](Cc1ccccc1)C(=O)N1CCC[C@H]1C(=O)N[C@@H](CC(=O)O)C(=O)NCC(=O)N[C@@H](CCCNC(=N)N)C(=O)N2	Ki [1]: 0.2 µM; Ki (Coagulation factor XII [2]): 130 µM; Ki [3]: 0.017 nM; K (Trypsin (Sus scrofa) [4]): 0.5 ×10⁻⁴ /s; K (Trypsin (Sus scrofa) [5]): 0.2 ×10⁷ /M/s
250	> 50	> 50	> 50	> 50	0.011	> 50	0.14	7.8	CC[C@H](C)[C@@H]1NC(=O)[C@@H]2CCCN2C(=O)[C@@H]2CCCN2C(=O)[C@H]([C@@H](C)CC)NC(=O)[C@H](CO)NC(=O)[C@H](CCCCN)NC(=O)[C@H](Cc2ccc(O)cc2)NC(=O)[C@@H]2CSSC[C@H](NC1=O)C(=O)N[C@@H](Cc1ccccc1)C(=O)N1CCC[C@H]1C(=O)N[C@@H](CC(=O)O)C(=O)NCC(=O)N[C@@H](CCCNC(=N)N)C(=O)N2 (HELM PEPTIDE1{C.F.P.D.G.R.C.Y.K.S.I.P.P.I}$PEPTIDE1,PEPTIDE1,1:R3-7:R3|PEPTIDE1,PEPTIDE1,1:R1-14:R2$$$V2.0)	Ki (Coagulation factor XI [6]): 13 µM; Ki (Plasma kallikrein [9]): 32 µM; Ki [11]: 480 µM; Ki (Prothrombin [12]): 250 µM
> 50	> 50	> 50	> 50	> 50	0.028	> 50	0.041	13	CC[C@H](C)[C@@H]1NC(=O)[C@@H]2CCCN2C(=O)[C@@H]2CCCN2C(=O)[C@H](CCCNC(=N)N)NC(=O)[C@H](CO)NC(=O)[C@H](CCCCN)NC(=O)[C@H](Cc2ccc(O)cc2)NC(=O)[C@@H]2CSSC[C@H](NC1=O)C(=O)N[C@@H](Cc1ccccc1)C(=O)N1CCC[C@H]1C(=O)N[C@@H](CC(=O)O)C(=O)NCC(=O)N[C@@H](CCCNC(=N)N)C(=O)N2 (HELM PEPTIDE1{C.F.P.D.G.R.C.Y.K.S.R.P.P.I}$PEPTIDE1,PEPTIDE1,1:R3-7:R3|PEPTIDE1,PEPTIDE1,1:R1-14:R2$$$V2.0)	Ki (Plasma kallikrein [14]): > 50 µM; Ki [15]: > 50 µM; Ki (Coagulation factor XI [16]): > 50 µM
